Measured values published in PubChem BioAssay (NCI).
“And” between values parts separate entries of the source, which are not always exact repeats. Equal values may be shown once.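 Assay format: 96-well plates, 48-hour exposure. At the GI50, growth is halved. TGI marks complete inhibition of growth.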

Columns and labels:
Assay in all cases: DTP human tumour cell line panel, 48 h
HT29 colon = tested on: HT29 colon
HOP-62 NSCLC = tested on: HOP-62 NSCLC
A498 renal = tested on: A498 renal
OVCAR-8 ovarian = tested on: OVCAR-8 ovarian
MALME-3M melanoma = tested on: MALME-3M melanoma
OVCAR-3 ovarian = tested on: OVCAR-3 ovarian
A549 NSCLC = tested on: A549 NSCLC
HCT-15 colon = tested on: HCT-15 colon
U251 CNS = tested on: U251 CNS
SR leukemia = tested on: SR leukemia

SMILES	GI50 (HT29 colon)	TGI (HT29 colon)	GI50 (HOP-62 NSCLC)	TGI (HOP-62 NSCLC)	GI50 (A498 renal)	TGI (A498 renal)	GI50 (OVCAR-8 ovarian)	TGI (OVCAR-8 ovarian)	GI50 (MALME-3M melanoma)	TGI (MALME-3M melanoma)	GI50 (OVCAR-3 ovarian)	TGI (OVCAR-3 ovarian)	GI50 (A549 NSCLC)	TGI (A549 NSCLC)	GI50 (HCT-15 colon)	TGI (HCT-15 colon)	GI50 (U251 CNS)	TGI (U251 CNS)	GI50 (SR leukemia)	TGI (SR leukemia)
O=C(N/N=C/c1cccc(O)c1)c1ccc(C(F)(F)F)nc1Nc1cccc(C(F)(F)F)c1	3.47 µM	11.2 µM	2.35 µM	6.95 µM	1.59 µM	5.65 µM	2.12 µM	11.3 µM	1.36 µM	3.83 µM	1.03 µM	4.79 µM	2.43 µM	7.84 µM	0.881 µM	10.1 µM	1.74 µM	6.65 µM		
C[C@H](CCCOS(C)(=O)=O)[C@H]1CC[C@H]2[C@@H]3CC[C@@H]4C[C@H](OS(C)(=O)=O)CC[C@]4(C)[C@H]3CC[C@]12C	1920 µM	> 2500 µM	493 µM		664 µM		582 µM		994 µM		2170 µM		793 µM		1020 µM	> 2500 µM	356 µM			
NC(N)=NC(N)=NCc1ccco1	> 1250 µM	> 1250 µM	780 µM	> 1250 µM	190 µM and > 1250 µM	> 1250 µM	896 µM	> 1250 µM	741 µM	> 1250 µM	847 µM	> 1250 µM	340 µM and 325 µM	> 1250 µM	> 1250 µM	> 1250 µM	516 µM	> 1250 µM		
CC1CCC2[C@@H](C)COC3O[C@]4(C)CCC1C32OO4 (some centres not stated)		> 100 µM		> 100 µM		> 100 µM		> 100 µM		> 100 µM		> 100 µM		> 100 µM		> 100 µM		> 100 µM		
COn1cc(C(=O)N=C(SC)SC)c2ccccc21	42.1 µM	> 100 µM	17.6 µM	51.4 µM			18.5 µM	55.5 µM			17.8 µM	51.5 µM	23.9 µM	87.6 µM	22.4 µM	62.5 µM	22.3 µM	70.6 µM		
CSc1nc(-c2cccc(NC(=O)CCl)c2)c(C#N)c(=O)n1C	1.68 µM	3.9 µM	2.16 µM	4.87 µM	5.51 µM	32.9 µM	2.43 µM	> 100 µM	1.17 µM	2.66 µM	1.7 µM	3.2 µM	3.28 µM	17.4 µM	1.27 µM	2.88 µM	1.35 µM	3.07 µM		
Nc1nc(Cl)c2ncn(Cc3ccc(-c4ccc(CCl)cc4)cc3)c2n1	11.3 µM	43.1 µM	15 µM	34.8 µM	35.2 µM	> 100 µM	7.86 µM	29.5 µM			7.3 µM	32 µM	19.3 µM	> 100 µM					3.09 µM	> 100 µM
C/C(=N\NS(=O)(=O)c1ccccc1)c1ccc[n+]([O-])n1		> 100 µM		> 100 µM		> 100 µM		> 100 µM				> 100 µM		> 100 µM		> 100 µM		> 100 µM		> 100 µM
O=C(CN1CCN(c2ccccn2)CC1)Nc1ccc(Cl)cc1C(=O)c1ccccc1Cl	8.92 µM	> 100 µM			24.5 µM	> 100 µM	> 100 µM	> 100 µM	> 100 µM	> 100 µM			14.3 µM	> 100 µM	7.85 µM	> 100 µM	> 100 µM	> 100 µM	6.63 µM	> 100 µM
COc1ccc(OC)c(/C=C/C(=O)c2ccc3cc(OC)ccc3c2)c1			9.71 µM	> 50 µM	12.2 µM	> 31.9 µM		> 11.9 µM			1.64 µM	11.9 µM	9.52 µM	> 32.4 µM		> 50 µM	7.19 µM	> 50 µM		
O=C1CC2OCC=C3CN4CCC56c7ccccc7N1C5C2C3CC46 (configuration not stated) (tested in a mixture with another compound)	> 50 µg/mL	> 50 µg/mL	> 50 µg/mL	> 50 µg/mL	> 50 µg/mL	> 50 µg/mL	> 50 µg/mL	> 50 µg/mL	> 50 µg/mL	> 50 µg/mL	> 50 µg/mL	> 50 µg/mL	> 50 µg/mL	> 50 µg/mL	> 50 µg/mL	> 50 µg/mL	> 50 µg/mL	> 50 µg/mL		
Cc1ccc(SSCCCCS(=O)O)cc1		53.7 µM		81.1 µM		54.6 µM				69.7 µM		67.7 µM		70.6 µM		89.2 µM		39.2 µM		
CCc1cccc(CC)c1NC(=O)C1=CNC(C)=C(C(=O)Nc2c(CC)cccc2CC)C1c1ccc(O)c(OC)c1 (configuration not stated)		80.2 µM		86.8 µM		76.4 µM		> 100 µM		> 100 µM		53.9 µM		> 100 µM				> 100 µM		
Cc1ccccc1NC(=O)CC(=O)n1nc(-c2ccccc2)c(N=Nc2ccc([N+](=O)[O-])cc2)c1-c1ccccc1		24.5 µM		48.3 µM				> 100 µM		75.9 µM		37.3 µM		41.8 µM				34.6 µM		> 100 µM
CC(=O)OC1(C#N)CC2OC1C1NC21 (configuration not stated)				> 100 µM		> 100 µM		> 100 µM		> 100 µM				> 100 µM		> 100 µM		> 100 µM		
Nc1nc(N)c(-c2ccc(Cl)cc2)c(/C=C/c2ccc([N+](=O)[O-])cc2)n1	4.99 µM	> 100 µM	11.9 µM	31.1 µM	1.97 µM	16.5 µM	4.77 µM	> 100 µM			5.76 µM	31.1 µM	3.1 µM	47.8 µM	3.97 µM	> 100 µM	3.99 µM	23.8 µM	6.25 µM	> 100 µM
COc1ccc2c(c1)O/C(=C\c1ccc([N+](=O)[O-])s1)C2=O			8.11 µM	> 31.6 µM	> 27.4 µM	> 75.7 µM	2.19 µM	> 100 µM	4.99 µM	> 100 µM			3.46 µM	> 100 µM	0.259 µM	0.825 µM	2.07 µM	> 20.9 µM	0.12 µM	0.759 µM
